Laboratory results as given in patent US20260008817A1, “CYCLIC PEPTIDE OR SALT THEREOF, AND USES THEREOF” (FUJIFILM Corporation, priority 2023, published 2026).
Positions of bridges follow the written chain, without caps; N, C: chain ends. Non-standard residues stand in square brackets, D forms with d. No end group written: not given here. COCH2 = acetyl group that carries the bridge; hCys = N[C@@H](CCS)C(=O)O

Assays:
[1] = test system: BaF3 cells stably expressing FGFR (bovine); assay: BaF3 cell proliferation-promoting effect, bovine FGFR; type: cell-based; details: viable cells at the addition concentration (0.001 to 10 nmol/L) with largest number; 2 nights
Experimental: (§1) The FGFR phosphorylation ability of the cyclic peptide complex was evaluated using the BaF3 cell proliferation-promoting effect in which FGFR was stably expressed.
(§2) BaF3 cells stably expressing FGFR were established by introducing a vector (human: Gene Copoeia, EX-Y2820-M67, bovine: sequence of Accession No. A4IFL5 was introduced into pCDNA3.1/Hygro(+) Mammalian Expression Vector (Thermo, V87020), porcine: sequence of Accession No. A0A8D1E4H1 was introduced into pCDNA3.1/Hygro(+) Mammalian Expression Vector (Thermo, V87020), and avian: sequence of Accession No. P21804 was introduced into pCDNA3.1/Hygro(+) Mammalian Expression Vector (Thermo, V87020)) into which FGFR gene had been incorporated, into BaF3 cells using Nucleofector and performing drug selection of cells into which the FGFR gene had been introduced using hygromycin.
(§3) The evaluation of the proliferation-promoting effect of BaF3 cells in which FGFR is stably expressed was performed by the following method. […] The number of viable cells was calculated from the imaging data, and the cell proliferation-promoting effect was evaluated according to the following evaluation criteria. […]

[2] = test system: BaF3 cells stably expressing FGFR (avian); assay: BaF3 cell proliferation-promoting effect, avian FGFR; type: cell-based; details: viable cells at the addition concentration (0.001 to 10 nmol/L) with largest number; 2 nights
Experimental: as §1, §2, §3

[3] = test system: BaF3 cells stably expressing FGFR (human); assay: BaF3 cell proliferation-promoting effect, human FGFR; type: cell-based; details: viable cells at the addition concentration (0.001 to 10 nmol/L) with largest number; 2 nights
Experimental: as §1, §2, §3

[4] = test system: BaF3 cells stably expressing FGFR (porcine); assay: BaF3 cell proliferation-promoting effect, porcine FGFR; type: cell-based; details: viable cells at the addition concentration (0.001 to 10 nmol/L) with largest number; 2 nights
Experimental: as §1, §2, §3

[5] = Alkali treatment stability of cyclic peptide (LC); type: physicochemical; details: 0.5 mol/L sodium hydroxide aqueous solution added, room temperature, 3 hours
Experimental: In addition, the stability of the cyclic peptide (SEQ ID NO: 335) containing a cysteine residue in the cyclized portion and the cyclic peptide (SEQ ID NO: 327) containing a homocysteine residue in the cyclized portion was compared under the following alkali treatment, which is a more severe condition.
The alkali treatment was performed by the following method. 25 μL of a 0.2 mg/mL cyclic peptide aqueous solution was prepared, 58.8 μL of a 0.5 mol/L sodium hydroxide aqueous solution was added to the aqueous solution, and the mixture was incubated at room temperature for 3 hours to obtain an aqueous solution of the cyclic peptide alkali-treated. The total area of all the peaks in LC/MS of the cyclic peptide before the alkali treatment was set to 100%, and the proportion of the total area of all the peaks in LC/MS of the aqueous solution of the cyclic peptide alkali-treated was determined to calculate the residual rate of the cyclic peptide.
The LC conditions used for the evaluation of molecular stability are the same as those in the measurement of the above-described cyclic peptide treated with a reducing agent.

[6] = test system: hMSC-Human Mesenchymal Stem Cells; assay: Effect of maintaining MSC undifferentiated potency (gene expression); type: cell-based
Experimental: The effect of maintaining mesenchymal stem cell (MSC) undifferentiated potency of the cyclic peptide complex was evaluated.
MSC was prepared in the same manner as in Example 7.
The evaluation of the effect of maintaining the MSC undifferentiated potency was performed by the following method. First, a culture medium (hereinafter, referred to as a custom culture medium) in which bFGF was removed from PRIME-XV MSC Expansion XSFM (FUJIFILM Irvine Scientific, Inc., 91149) was prepared. Next, Prime-XV Human Fibronectin (FUJIFILM Irvine Scientific, Inc., 31002) was dissolved in PBS (Fujifilm Wako Pure Chemical Corporation, 164-23551), 2 μg/cm^2 of the solution was added to a 12-well plate used for proliferation, and the 12-well plate was allowed to stand at room temperature for 3 hours to coat the 12-well plate with fibronectin. Thereafter, the MSCs subjected to the subculture were peeled using Tryple Express (Thermo, 12604-013), washed once with a custom culture medium, suspended in a custom culture medium in which a cyclic peptide complex or bFGF (R&D Systems, 3718-GMP) was diluted to final concentrations of 10 nmol/L and 1 nmol/L, and seeded on a 12-well plate coated with fibronectin. In this case, conditions in which the cyclic peptide complex and bFGF were not added as a negative control were prepared. After culturing at 37° C. (5% CO2) for 2 nights, the culture medium was replaced by removing the supernatant of the culture medium and adding the same amount of a culture medium prepared to have the same composition as the removed culture medium. After further culturing at 37° C. (5% CO2) for 2 nights, RNA was extracted using an RNeasy Plus Mini Kit (Qiagen, 74136) according to the manufacturer's protocol. […] The expression level of each gene was normalized by setting the expression level of the well to which 1 nmol/L bFGF was added to 1.

[7] = 1 nmol/L bFGF versus negative control

Substance: 343 (ACVWTFDRHAQEISQALHKVGSGSGSSGSGSSGSSACVWTFDRHAQEISQALHKV; also: cyclic peptide, ring type and places not given here) [compound 343]
- Evaluation result of cell proliferative properties Bovine [1]: A (The number of viable cells is 400 cells/well or more.)
- Evaluation result of cell proliferative properties Avian [2]: B (The number of viable cells is 200 cells/well or more and less than 400 cells/well.)
- Evaluation result of cell proliferative properties Human [3]: C (The number of viable cells is 100 cells/well or more and less than 200 cells/well.)
- Evaluation result of cell proliferative properties Porcine [4]: B (The number of viable cells is 200 cells/well or more and less than 400 cells/well.)

Substance: 344 (ACVWTFDRHAQEISQALHKVACVWTFDRHAQEISQALHKV; also: cyclic peptide, ring type and places not given here) [compound 344]
- Evaluation result of cell proliferative properties Bovine [1]: A (The number of viable cells is 400 cells/well or more.)
- Evaluation result of cell proliferative properties Avian [2]: B (The number of viable cells is 200 cells/well or more and less than 400 cells/well.)
- Evaluation result of cell proliferative properties Human [3]: B (The number of viable cells is 200 cells/well or more and less than 400 cells/well.)
- Evaluation result of cell proliferative properties Porcine [4]: B (The number of viable cells is 200 cells/well or more and less than 400 cells/well.)

Substance: A-(C)-VWTFDRHAQEISQALH-(K(acetyl))-VKKK (ACVWTFDRHAQEISQALHK(COCH2)VKKK; thioether 2-19 (inferred)) [SEQ ID NO: 335]
- residual rate of the cyclic peptide [5]: 15%

Substance: A-(Hcy)-VWTFDRHAQEISQALH-(K(acetyl))-VKKK (A[hCys]VWTFDRHAQEISQALHK(COCH2)VKKK; thioether 2-19) [SEQ ID NO: 327]
- residual rate of the cyclic peptide [5]: 28%

Substance: bFGF: basic fibroblast growth factor (R&D Systems, 3718-GMP), growth factor used as comparison
- expression level of Nanog [6, 7]: did not change substantially
- expression level of Oct4 [6, 7]: did not change substantially
- expression level of Sox2 ([6]; cyclic peptide complex 10 nmol/L, bFGF 1 nmol/L, normalized to 1 nmol/L bFGF = 1, FIG. 4): changed
